Legend:
[1] = Level of premature breakage of hairs in a tensile test (Zwick tensile testing machine); conditions: 5% by weight compound in water; 30 natural African hairs immersed 3 days at 40° C., no final rinsing; hairs 30 mm, drawn at 10 mm/minute; untreated control R = 0.27
Procedure: The hair used for the following tests was left in a glove box at 25° C. and 45% relative humidity for about 24 hours.
A composition was prepared by mixing together 5% by weight of the compound of Example 1 and 95% by weight of water relative to the total weight of the composition.
30 natural African hairs were then treated with this composition: the hairs were immersed for 3 days at 40° C., without final rinsing, and their level of premature breakage was then compared with that of a batch of untreated natural control hairs.
Mechanical tests were performed using a Zwick tensile testing machine on the hairs 30 mm long. The hairs were drawn at a speed of 10 mm/minute.
The level of premature breakage of the treated African hair, on the one hand, and of the untreated African hair, on the other hand, was evaluated as follows: R=1—(number of hairs showing breakage under tension in the hardening zone/N) • N being the total number of hairs tested.

[2] = treatment with aqueous solutions of the humectant; breakage for small elongations; cited from earlier work

SMILES	Level of premature breakage R, first test [1]	Level of premature breakage R, second test [1]	Improving the mechanical strength of Negroid hair and reducing its level of premature breakage [2]
O=C(NCCO)NCCO [Example 1, N,N′-bis(2-hydroxyethyl)urea]	R = 0.17	R = 0.10	
OCC(O)CO [glycerol]			effective

From patent US20060039879A1, “Use of particular polyols for preventing the hair from breaking, composition comprising them and cosmetic hair treatment process” (L'OREAL, priority 2004, published 2006)
